# pEC50: −log10 of the molar value.
# Biological target: T1, human TMEM16A (TMEM16Aabc variant) (Homo sapiens, UniProt Q5XXA6, DEL476-501)
# T1 sequence (Q5XXA6 with tags, fused parts or gaps isoform Q5XXA6-5 DEL539-564): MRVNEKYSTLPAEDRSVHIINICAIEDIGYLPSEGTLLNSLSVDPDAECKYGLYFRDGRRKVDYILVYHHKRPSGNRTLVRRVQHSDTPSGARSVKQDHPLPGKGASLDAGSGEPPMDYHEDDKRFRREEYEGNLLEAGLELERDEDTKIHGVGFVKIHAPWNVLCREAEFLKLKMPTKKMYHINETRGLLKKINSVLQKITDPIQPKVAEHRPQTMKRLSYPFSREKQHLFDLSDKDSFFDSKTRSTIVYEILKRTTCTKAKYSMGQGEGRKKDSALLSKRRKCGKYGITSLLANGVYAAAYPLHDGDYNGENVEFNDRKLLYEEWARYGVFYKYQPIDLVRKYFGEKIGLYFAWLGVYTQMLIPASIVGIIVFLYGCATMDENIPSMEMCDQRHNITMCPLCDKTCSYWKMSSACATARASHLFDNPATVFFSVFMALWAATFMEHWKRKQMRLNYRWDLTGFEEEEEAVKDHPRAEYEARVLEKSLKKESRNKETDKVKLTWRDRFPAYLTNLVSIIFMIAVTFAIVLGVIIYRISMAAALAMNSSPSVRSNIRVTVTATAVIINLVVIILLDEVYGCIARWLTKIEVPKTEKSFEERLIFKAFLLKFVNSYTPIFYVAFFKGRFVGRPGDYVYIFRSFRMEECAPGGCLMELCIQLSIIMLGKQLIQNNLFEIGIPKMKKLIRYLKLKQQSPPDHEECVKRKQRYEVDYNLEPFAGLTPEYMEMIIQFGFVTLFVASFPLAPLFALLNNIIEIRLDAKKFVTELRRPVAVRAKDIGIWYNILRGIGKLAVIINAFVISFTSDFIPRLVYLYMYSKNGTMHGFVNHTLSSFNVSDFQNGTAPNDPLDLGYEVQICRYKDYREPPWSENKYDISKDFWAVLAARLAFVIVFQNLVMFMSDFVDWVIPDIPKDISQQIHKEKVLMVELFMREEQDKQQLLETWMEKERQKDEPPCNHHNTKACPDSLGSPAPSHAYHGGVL
# Experiment: Automated whole-cell patch clamp (Qpatch) TMEM16A potentiator assay in FRT cells stably expressing human TMEM16A
# Format: cell-based
# Details: for activation at 3.33 µM: 3.33 μM test compound, percentage increase of baseline TMEM16A current at +70 mV, intracellular calcium at EC20, read-out: % Potentiation @ 3.33 μM Avg; for pEC50: cumulative concentration response, 5 min per concentration, whole-cell patch clamp
# Description: Automated whole-cell patch clamp assay to detect TMEM16A activity in recombinant cells Cell culture and preparation
# Fisher rat thyroid (FRT) cells stably expressing human TMEM16A (TMEM16Aabc variant; Dr Luis Galietta, Insituto Giannina, Italy) were cultured in T-75 flasks in Hams F-12 media with Coon's modification (Sigma) supplemented with 10% (v/v) foetal bovine serum, penicillin-streptomycin (10,000 U/mL/10000 μg/mL), G-418 (750μg/mL), L-glutamine (2 mM) and sodium bicarbonate solution (7.5% v/v). At —90% confluence cells were harvested for experiments by detachment with a 2:1 (v/v) mixture of Detachin (BMS Biotechnology) and 0.25% (w/v) trypsin-EDTA. Cells were diluted to a density of 3.5-4.5×10^6 cells/mL with media consisting of CHO-S-SFM II (Sigma), 25 mM HEPES (Sigma) and Soy bean trypsin inhibitor (Sigma).
# Whole-Cell Patch Clamp Recording
# FRT-TMEM16A cells were whole-cell patch clamped using an automated planar patch clamp system (Qpatch, Sophion). Briefly, once high resistance (GOhm) seals were established between the cells and the planar recording array the patch was ruptured using suction pulses to establish the whole-cell recording configuration of the patch clamp technique. The assay employed the following solutions (all reagents Sigma):
# Intracellular solution (mM): N-methyl-D-glucamine 130, CaCl2 18.2, MgCl2 1, HEPES 10, EGTA 10, BAPTA 20, Mg-ATP 2, pH 7.25, 325mOsm with sucrose.
# Extracellular solution (mM): N-methyl-D-glucamine 130, CaCl2 2, MgCl2 1, HEPES 10, pH 7.3, 320 mOsm with sucrose.
# The intracellular solution buffers intracellular calcium at levels required to give —20% activation of the maximal TMEM16A mediated current (EC20 for calcium ions). Cells were voltage clamped at a holding potential of -70mV and a combined voltage step (to +70 mV)/ramp (−90 my to +90 mV) was applied at 0.05 Hz. After a period of current stabilisation test compounds, solubilised in 100% (v/v) DMSO and subsequently diluted into extracellular solution, were applied to generate a cumulative concentration response curve. Each concentration of test compound was incubated for 5 minutes before addition of the next concentration. After the final concentration was tested a supramaximal concentration of either a known active positive modulator or the TMEM16A inhibitor, CaCCinhA01 (Del La Fuente et al, 2008) was added to define the upper and lower limits of the assay.
# Compound activity was quantified by measuring the increase in current upon compound addition and expressing this as a percentage increase of baseline TMEM16A current level. Percentage increases in current were determined for each concentration and the data plotted as a function of concentration using either the Qpatch software or Graphpad Prism v6.05 providing the concentration which gave 50% of its maximal effect (EC50) and maximum efficacy (percentage of baseline increase).
# In FIG. 1, IBL equals baseline current, km equals the peak current during test compound concentration 1 incubation period and so on.
# Peak TMEM16A current at +70mV was plotted as a function of time over the assay period. Baseline current (IBL) was measured after a period of stabilisation. The increase in current for each compound addition was determined by taking the peak current during the incubation period and subtracting the current from the previous recording period and then expressing this as a percentage of the baseline current. For test compound concentration 1 in FIG. 1 this is:
# For each additional concentration tested the increase in current was determined by subtracting the current from the previous incubation period and normalising the baseline value—for test concentration 2 in FIG. 1 this is:
# The values for each test concentration were plotted as a cumulative function of concentration e.g. for test concentration two this would be the sum of the peak changes measured during concentration one plus concentration two.
activation at 3.33 µM [%],pEC50,Structure (SMILES)
127,6.60,"O=C(CC1CCCCC1)Nc1ccc2[nH]c(Cc3ccccc3)nc2c1 [Example 1.1, N-(2-Benzyl-1H-benzimidazol-5-yl)-2-cyclohexyl-acetamide]"
111,6.65,"O=C(NCC1CCCCC1)c1ccc2[nH]c(Cc3ccccc3)nc2c1 [Example 1.2, 2-Benzyl-N-(cyclohexylmethyl)-1H-benzimidazole-5-carboxamide]"
146,6.36,"O=C(NCC12CC3CC(CC(C3)C1)C2)c1ccc2[nH]c(Cc3ccccc3)nc2c1 [Example 1.2.1, N-(1-Adamantylmethyl)-2-benzyl-1H-benzimidazole-5-carboxamide]"
144,6.69,"CC1(CNC(=O)c2ccc3[nH]c(Cc4ccccc4)nc3c2)CCCC1 [Example 1.2.2, 2-Benzyl-N-I(1-methylcyclopentyl)methylj-1H-benzimidazole-5-carboxamide]"
153,6.10,"C[C@@H](NC(=O)c1ccc2[nH]c(Cc3ccccc3)nc2c1)C1CCCCC1 [Example 1.2.3, 2-Benzyl-N-[(1R)-1-cyclohexylethyl]-1H-benzimidazole-5-carboxamide]"
78.5,6.25,"CCC(C)(C)c1nc2ccc(C(=O)NCC3CCCCCC3)cc2[nH]1 [Example 1.3, N-(Cycloheptylmethyl)-2-(1,1-dimethylpropyl)-3H-benzimidazole-5-carboxamide]"
135,6.37,"O=C(NCC1CCCCCC1)c1ccc2[nH]c(CC3(O)CCCCC3)nc2c1 [Example 1.3.1, N-(Cycloheptylmethyl)-2-[(1-hydroxycyclohexyl)methyl]-1H-benzimidazole-5-carboxamide]"
92.9,6.24,"O=C(NCC1CCCCCC1)c1ccc2[nH]c(C(CO)c3ccccc3)nc2c1 (stereo not drawn) [Example 1.3.2, N-(Cycloheptylmethyl)-2-(2-hydroxy-1-phenyl-ethyl)-1H-benzimidazole-5-carboxamide]"
81.3,6.42,"O=C(NCC1CCCCC1)c1ccc2nc(Cc3cccc(O)c3)[nH]c2c1 [Example 1.4, N-(Cyclohexylmethyl)-2-[(3-hydroxyphenyl)methyl]-3H-benzimidazole-5-carboxamide]"
162,5.96,"O=C(CC12CC3CC(CC(C3)C1)C2)Nc1ccc2[nH]c(Cc3cccc(O)c3)nc2c1 [Example 1.5, 2-(1-Adamantyl)-N-12-[(3-hydroxyphenyl)methyl]-1H-benzimidazol-5-yljacetamide]"
105,6.65,"CC1(CC(=O)Nc2ccc3[nH]c(Cc4cccc(O)c4)nc3c2)CCCCC1 [Example 1.5.1, N-[2-[(3-hydroxyphenyl)methyl]-1H-benzimidazol-5-yl]-2-(1-methylcyclohexyl) acetamide]"
136,6.64,"O=C(CC1CCCCCC1)Nc1ccc2[nH]c(Cc3cccc(O)c3)nc2c1 [Example 1.5.2, 2-Cycloheptyl-N-[2-[(3-hydroxyphenyl)methyl]-1H-benzimidazol-5-yl]acetamide]"
93.1,6.25,"O=C(CC1CCCCC1)Nc1ccc2[nH]c(Cc3cccc(O)c3)nc2c1 [Example 1.5.3, 2-Cyclohexyl-N-12-[(3-hydroxyphenyl)methyl]-1H-benzimidazol-5-yljacetamide]"
219,6.08,"O=C(CC12CC3CC(CC(C3)C1)C2)Nc1ccc2[nH]c(Cc3ccccc3)nc2c1 [Example 1.5.4, 2-(1-Adamantyl)-N-(2-benzyl-1H-benzimidazol-5-yl)acetamide]"
83.9,6.64,O=C(CC1(O)C2CC3CC(C2)CC1C3)Nc1ccc2[nH]c(Cc3ccccc3)nc2c1 (stereo not drawn) [Example 1.6]
136,6.23,"COc1cccc(Cc2nc3cc(NC(=O)CC4C5CC6CC(C5)CC4C6)ccc3[nH]2)c1 (stereo not drawn) [Example 1.7, 2-(2-Adamantyl)-N-12-[(3-methoxyphenyl)methyl]-1H-benzimidazol-5-yljacetamide]"
157,6.56,"C[C@@H](c1ccccc1)c1nc2cc(NC(=O)CC3C4CC5CC(C4)CC3C5)ccc2[nH]1 (stereo partly drawn) [Example 1.7.1, 2-(2-Adamantyl)-N[2-[(1 S)-1-phenylethyl]-1H-benzimidazol-5-yl]acetamide]"
143,6.53,"C[C@H](c1ccccc1)c1nc2cc(NC(=O)CC3C4CC5CC(C4)CC3C5)ccc2[nH]1 (stereo partly drawn) [Example 1.7.2, 2-(2-Adamantyl)-N[2-[(1R)-1-phenylethyl]-1H-benzimidazol-5-yl]acetamide]"
114,5.95,"CC(C)(C)OC(=O)NCc1nc2cc(NC(=O)CC34CC5CC(CC(C5)C3)C4)ccc2[nH]1 [Example 1.7.3, tert-Butyl N-[[5-[[2-(1-adamantyl)acetyl]amino]-1H-benzimidazol-2-yl]methyl]carbamate]"
148,5.88,"COc1ncccc1Cc1nc2cc(NC(=O)CC34CC5CC(CC(C5)C3)C4)ccc2[nH]1 [Example 1.7.4, 2-(1-Adamantyl)-N-12-[(2-methoxy-3-pyridyl)methyl]-1H-benzimidazol-5-yljacetamide]"
126,6.59,"O=C(CC1C2CC3CC(C2)CC1C3)Nc1ccc2[nH]c(Cc3cccc(O)c3)nc2c1 (stereo not drawn) [Example 1.8, 2-(2-Adamantyl)-N-12-[(3-hydroxyphenyl)methyl]-1H-benzimidazol-5-yljacetamide]"
52.1,–,"CC(C)(C)c1nc2cc(C(=O)NCc3cc(Cl)ccc3O)ccc2[nH]1 [Example 1.9, 2-tert-Butyl-N-[(5-chloro-2-hydroxy-phenyl)methyl]-1H-benzimidazole-5-carboxamide]"
110,6.05,"CC(C)(C)OC(=O)NCc1nc2cc(C(=O)NCC3CCCCCC3)ccc2[nH]1 [Example 1.10, tert-Butyl N-[[5-(cycloheptylmethylcarbamoyl)-1H-benzimidazol-2-yl]methyl] carbamate]"

# Source: patent US20240132467A1, “BENZIMIDAZOLE DERIVATIVES FOR TREATING RESPIRATORY DISEASE” (TMEM16A Limited, priority 2020, published 2024)
